Key:
OCI-LY10 cells = assay: Inhibitory activity on OCI-LY10 cell proliferation (MTS); format: cell-based; settings: Homo sapiens, 72 h or 168 h
Method: (§1) The anti-tumor efficacy of the compounds was tested by measuring their inhibitory effects on OCI-LY10 and Mino cell proliferation. OCI-LY10 and Mino cells were cultured in RPM-1640 medium containing […] fetal calf serum. OCI-LY10 and Mino cells were digested, inoculated in a 96-well plate at a cell concentration of 10000 cells/well, and incubated overnight at 37° C., 5% CO2. Compounds of different concentrations (1000 nM, 4-fold dilution, 8 points) were added to the 96-well plate and incubated for 72 h or 168 h at 37° C. and […], and then 20 μL of MTS was added to each well. After incubation for 2 h, 25 μl of 10% SDS was added to each well to terminate the reaction. The absorbance at 490 nm and 650 nm were measured with a microplate reader. IC50 was calculated using GraphPad Prism 5.0.

[1] = Liver microsomal metabolic stability, human; format: in vitro ADME; settings: human liver microsomes, NADPH, 37° C.
Method: (§2) Under the condition of ice bath, 1 mg of human or Mouse liver microparticles was add to PBS (1 mL) buffer, then NADPH (20 μL) was added, and incubated at 37° C. for 5 min. 10 μL of the compound to be tested was added, then suck several times with a pipette and divide into 3 aliquots of 330 μL; each and then samples were taken at 0, 15, 30, 60 and 120 min respectively. 10 μL of the solution was taken with a pipette each time and added to 490 μL of the solution containing the internal standard compound. The resulting solution was vortexed and then placed on ice, and then sampling at another time point continues. All samples were centrifuged at 10,000 rpm for 10 min, and the supernatant was taken for LC/MS testing. The metabolism of the compound in liver microsomes was calculated based on the peak area.

Mino cells = assay: Inhibitory activity on Mino cell proliferation (MTS); format: cell-based; settings: Homo sapiens, 72 h or 168 h
Method: as §1

BTK = target: T1, BTK (Homo sapiens, UniProt Q06187); assay: BTK degradation activity test in Mino cells (Westernblot or Elisa); format: cell-based; settings: 24-72 h incubation
T1 construct: endogenous in cells; host or cells: Mino cells
Method: The Mino cell line cells are 0.5˜1 million/well in 6-well plates. The compounds are diluted to different concentrations, added to the plate, and after 24-72 h of incubation, the cells are collected. After the cells were lysed, the total protein concentration in each well was determined with a BCA kit. The amount of BTK is determined using the Westernblot or Elisa method.

[2] = Liver microsomal metabolic stability, mouse; format: in vitro ADME; settings: mouse liver microsomes, NADPH, 37° C.
Method: as §2

Mouse absorption test = format: in vivo; settings: mice, intragastric 10 mg/kg, plasma
Method: (§3) Experimental method: mice were used as experimental animals, and drugs were administered intragastrically at 10 mg/kg (5% DMSO+5% Solutol+90% saline). The blood collection time points for intragastric administration were 0.25, 0.5, 1, 2, 4, 6, 8, and 24 h. 0.3 ml of whole blood was taken, and 0.1 ml of plasma was taken after centrifugation and analyzed by LC-MS.

Rat absorption test = format: in vivo; settings: SD rats, intragastric 10 mg/kg, plasma
Method: as §3, with “SD Rats” for “Experimental method: mice”, “Solutol+90% normal” for “Solutol+90%”

T1 sequence (Q06187 whole entry): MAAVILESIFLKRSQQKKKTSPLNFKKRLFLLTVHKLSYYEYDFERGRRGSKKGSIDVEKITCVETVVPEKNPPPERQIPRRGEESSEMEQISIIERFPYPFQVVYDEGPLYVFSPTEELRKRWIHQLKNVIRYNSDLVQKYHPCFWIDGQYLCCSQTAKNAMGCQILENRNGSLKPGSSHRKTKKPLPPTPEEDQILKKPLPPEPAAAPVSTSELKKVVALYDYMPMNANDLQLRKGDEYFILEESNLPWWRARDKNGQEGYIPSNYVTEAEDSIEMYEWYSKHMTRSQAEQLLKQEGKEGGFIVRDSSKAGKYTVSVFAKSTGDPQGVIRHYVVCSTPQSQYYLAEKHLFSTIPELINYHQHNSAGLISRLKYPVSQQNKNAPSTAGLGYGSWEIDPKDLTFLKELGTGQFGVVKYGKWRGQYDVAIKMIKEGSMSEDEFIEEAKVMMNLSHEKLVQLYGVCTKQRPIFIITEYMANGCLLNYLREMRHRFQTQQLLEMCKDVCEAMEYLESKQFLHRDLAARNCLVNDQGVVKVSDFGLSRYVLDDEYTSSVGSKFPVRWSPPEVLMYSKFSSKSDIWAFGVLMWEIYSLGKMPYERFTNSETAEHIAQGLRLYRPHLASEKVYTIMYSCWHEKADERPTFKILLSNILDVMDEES

IC50 (OCI-LY10 cells) [nM]	Thalf (min) Human [1] [min]	DC50 (BTK) [nM]	Thalf (min) Mouse [2] [min]	DNAUC (Mouse absorption test)	DNAUC (Rat absorption test)	Structure (SMILES)	IC50 (Mino cells) [nM]
1.15	–	< 10	–	–	6611 AUC (h*ng/mL)/dose (mg/kg)	NC(=O)c1nnc(N2CCCCC2)nc1Nc1ccc(N2CCN(CC3CCN(c4ccc(C(=O)NC5CCC(=O)NC5=O)nc4)C3)CC2)c(F)c1 (stereo not drawn) [Compound 079, 5-((4-(4-((1-(6-((2,6-dioxopiperidin-3-yl)carbamoyl)pyridin-3-yl)pyrrolidin-3-yl)methyl)piperazin-1-yl)-3-fluorophenyl)amino)-3-(piperidin-1-yl)-1,2,4-triazine-6-carboxamide]	–
0.57	–	< 10	–	–	579 AUC (h*ng/mL)/dose (mg/kg)	NC(=O)c1nnc(N2CCCCC2)nc1Nc1ccc(N2CCN(CC3CCN(c4ccc(C(=O)NC5CCC(=O)NC5=O)nc4)CC3)CC2)c(F)c1 (stereo not drawn) [Compound 085, 5-((4-(4-((1-(6-((2,6-dioxopiperidin-3-yl)carbamoyl)pyridin-3-yl)piperidin-4-yl)methyl)piperazin-1-yl)-3-fluorophenyl)amino)-3-(piperidin-1-yl)-1,2,4-triazine-6-carboxamide]	–
1.59	57	< 10	79	–	285 AUC (h*ng/mL)/dose (mg/kg)	NC(=O)c1nnc(N2CCCCC2)nc1Nc1ccc(N2CCN(CC3CCN(c4ccc(NC5CCC(=O)NC5=O)nc4)CC3)CC2)c(F)c1 (stereo not drawn) [Compound 077, 5-((4-(4-((1-(6-((2,6-dioxopiperidin-3-yl)amino)pyridin-3-yl)piperidin-4-yl)methyl)piperazin-1-yl)-3-fluorophenyl)amino)-3-(piperidin-1-yl)-1,2,4-triazine-6-carboxamide]	–
0.24	41	< 10	90	–	–	CC(=O)N[C@@H]1CCCN(c2nnc(C(N)=O)c(Nc3ccc(N4CCN(CC5CCN(c6ccc(C(=O)NC7CCC(=O)NC7=O)nc6)CC5)CC4)c(F)c3)n2)C1 (stereo partly drawn) [Compound 092, 3-((R)-3-acetamidopiperidin-1-yl)-5-((4-(4-((1-(6-((2,6-dioxopiperidin-3-yl)carbamoyl)pyridin-3-yl)piperidin-4-yl)methyl)piperazin-1-yl)-3-fluorophenyl)amino)-1,2,4-triazine-6-carboxamide]	3.28
–	–	< 10	–	1941 AUC (h*ng/mL)/dose (mg/kg)	–	NC(=O)c1nnc(N2CCCCC2)nc1Nc1ccc(N2CCC(CN3CCN(c4ccc5c(c4)C(=O)N(C4CCC(=O)NC4=O)C5=O)CC3)CC2)c(F)c1 (stereo not drawn) [Compound 044, 5-((4-(4-((4-(2-(2,6-dioxopiperidin-3-yl)-1,3-dioxoisoindolin-5-yl)piperazin-1-yl)methyl)piperidin-1-yl)-3-fluorophenyl)amino)-3-(piperidin-1-yl)-1,2,4-triazine-6-carboxamide]	3.46
0.39	–	< 10	–	–	–	NC(=O)c1nnc(N2CCOCC2)nc1Nc1ccc(N2CCN(CC3CCN(c4ccc(C(=O)NC5CCC(=O)NC5=O)nc4)CC3)CC2)c(F)c1 (stereo not drawn) [Compound 100, 5-((4-(4-((1-(6-((2,6-dioxopiperidin-3-yl)carbamoyl)pyridin-3-yl)piperidin-4-yl)methyl)piperazin-1-yl)-3-fluorophenyl)amino)-3-morpholino-1,2,4-triazine-6-carboxamide]	3.83

The remaining lines, values behind:

Structure (SMILES)	IC50 (OCI-LY10 cells) [nM]	Thalf (min) Human [1] [min]	DC50 (BTK) [nM]	Thalf (min) Mouse [2] [min]	DNAUC (Mouse absorption test)	DNAUC (Rat absorption test)	IC50 (Mino cells) [nM]
CC(=O)N[C@@H]1CCCN(c2nnc(C(N)=O)c(Nc3ccc(N4CCN(CC5CCN(c6ccc(N7CCC(=O)NC7=O)c(C)c6)CC5)CC4)c(F)c3)n2)C1 [Compound 090, (R)-3-(3-acetamidopiperidin-1-yl)-5-((4-(4-((1-(4-(2,4-dioxotetrahydropyrimidin-1(2H)-yl)-3-methylphenyl)piperidin-4-yl)methyl)piperazin-1-yl)-3-fluorophenyl)amino)-1,2,4-triazine-6-carboxamide]	0.89	78	< 10	63	–	–	1.94
CC(=O)N[C@@H]1CCCN(c2nnc(C(N)=O)c(Nc3ccc(C4CCN(CC5CCN(c6ccc7c(c6)C(=O)N(C6CCC(=O)NC6=O)C7=O)C5)CC4)cc3)n2)C1 (stereo partly drawn) [Compound 016, 3-((R)-3-acetamidopiperidin-1-yl)-5-((4-(1-((1-(2-(2,6-dioxopiperidin-3-yl)-1,3-dioxoisoindolin-5-yl)pyrrolidin-3-yl)methyl)piperidin-4-yl)phenyl)amino)-1,2,4-triazine-6-carboxamide]	0.32	37	< 10	49	–	–	1.45
NC(=O)c1nnc(N2CCCCC2)nc1Nc1ccc(C2CCN(CC3CCN(c4ccc5c(c4)C(=O)N(C4CCC(=O)NC4=O)C5=O)CC3)CC2)c(F)c1 (stereo not drawn) [Compound 007, 5-((4-(1-((1-(2-(2,6-dioxopiperidin-3-yl)-1,3-dioxoisoindolin-5-yl)piperidin-4-yl)methyl)piperidin-4-yl)-3-fluorophenyl)amino)-3-(piperidin-1-yl)-1,2,4-triazine-6-carboxamide]	–	–	< 10	–	1955 AUC (h*ng/mL)/dose (mg/kg)	–	5.31
Cc1cc(N2CCC(CN3CCN(c4ccc(Nc5nc(N6CCCCC6)nnc5C(N)=O)cc4F)CC3)CC2)ccc1N1CCC(=O)NC1=O [Compound 075, 5-((4-(4-((1-(4-(2,4-dioxotetrahydropyrimidin-1(2H)-yl)-3-methylphenyl)piperidin-4-yl)methyl)piperazin-1-yl)-3-fluorophenyl)amino)-3-(piperidin-1-yl)-1,2,4-triazine-6-carboxamide]	0.51	–	< 10	–	–	1125 AUC (h*ng/mL)/dose (mg/kg)	1.42
CC(=O)N[C@@H]1CCCN(c2nnc(C(N)=O)c(Nc3ccc(C4CCN(CC5CCN(c6ccc7c(c6)C(=O)N(C6CCC(=O)NC6=O)C7=O)CC5)CC4)cc3)n2)C1 (stereo partly drawn) [Compound 023, 3-((R)-3-acetamidopiperidin-1-yl)-5-((4-(1-((1-(2-(2,6-dioxopiperidin-3-yl)-1,3-dioxoisoindolin-5-yl)piperidin-4-yl)methyl)piperidin-4-yl)phenyl)amino)-1,2,4-triazine-6-carboxamide]	0.69	20	< 10	59	–	–	6.75
NC(=O)c1nnc(N2CCCCC2)nc1Nc1ccc(N2CCN(CC3CCN(c4ncc(-c5ccc(=O)[nH]n5)cc4C(F)(F)F)CC3)CC2)c(F)c1 [Compound 081, 5-((3-fluoro-4-(4-((1-(5-(6-oxo-1,6-dihydropyridazin-3-yl)-3-(trifluoromethyl)pyridin-2-yl)piperidin-4-yl)methyl)piperazin-1-yl)phenyl)amino)-3-(piperidin-1-yl)-1,2,4-triazine-6-carboxamide]	–	–	< 10	–	–	372 AUC (h*ng/mL)/dose (mg/kg)	–
NC(=O)c1nnc(N2CCCCC2)nc1Nc1ccc(N2CCC(CN3CCN(c4cc5c(cc4F)C(=O)N(C4CCC(=O)NC4=O)C5=O)CC3)CC2)cc1 (stereo not drawn) [Compound 046, 5-((4-(4-((4-(2-(2,6-dioxopiperidin-3-yl)-6-fluoro-1,3-dioxoisoindolin-5-yl)piperazin-1-yl)methyl)piperidin-1-yl)phenyl)amino)-3-(piperidin-1-yl)-1,2,4-triazine-6-carboxamide]	–	–	< 10	–	1867 AUC (h*ng/mL)/dose (mg/kg)	–	–
NC(=O)c1nnc(N2CCOCC2)nc1Nc1ccc(C2CCN(CC3CCN(c4ccc5c(c4)C(=O)N(C4CCC(=O)NC4=O)C5=O)C3)CC2)cc1 (stereo not drawn) [Compound 019, 5-((4-(1-((1-(2-(2,6-dioxopiperidin-3-yl)-1,3-dioxoisoindolin-5-yl)pyrrolidin-3-yl)methyl)piperidin-4-yl)phenyl)amino)-3-morpholino-1,2,4-triazine-6-carboxamide]	1.1	–	< 10	–	–	–	2.13
